Test results: US20240034785A1, “RXR-ALPHA BINDERS AND RXR-ALPHA/PLK1 MODULATORS” (NUCMITO PHARMACEUTICALS CO. LTD., priority 2020, published 2024)
Residue numbers refer to the chain shown, from its start. Names and notes keep the numbering of the source.

Columns and labels:
RXRα shift = assay: Western blot of RXRα mobility shift (phosphorylation) in mitotic HeLa cells treated with inhibitors; format: cell-based, human; conditions: for RXRα shift (mobility shift on SDS-PAGE, WB): mitotic HeLa cells released from TT block, inhibitors for 15 min (FIG. 16)
Protocol: (§1) Cells were synchronized at GUS boundary by a double thymidine block. Briefly, cells cultured in a medium containing 2 mM thymidine for 16 hr were released into a normal medium for 8 hr, subjected to a second thymidine block for 16 hr, and then released into a fresh medium again. Alternatively, cells were synchronized at prometaphase by a thymidine-nocodazole arrest (an 18-hr thymidine arrest and a 5-hr release, followed by a 5-hr 100 ng/mL nocodazole arrest).

QSG-7701 cells = assay: Western blot analysis of QSG-7701 normal liver cells; format: cell-based, human; conditions: 12 hr (FIG. 61)
cancer cells = assay: Mitotic progression of cancer cells (FACS analysis); format: cell-based
Protocol: Cells were harvested by trypsin digestion, washed with PBS, and fixed with ice-cold 70% ethanol overnight at 4° C. The fixed cells were then washed twice in PBS and treated for 10 min at room temperature with 0.5 μg/mL 4-6-diamidino-2-phenylindole (DAPI) in PBS and analyzed on a FACSCAN™ flow cytometer. Flow cytometry data were analyzed using CYTEXPERT.

PLK1 phosphorylation = assay: Western blot of PLK1 activation/phosphorylation in mitotic cells; format: cell-based, human
Protocol: as §1

[1] = tested on: centrosomal localization of pS56-RXRα or RXRα; assay: Immunostaining of centrosomal localization of pS56-RXRα or RXRα in metaphase HeLa cells; format: cell-based, human; conditions: metaphase HeLa cells (FIG. 33)
Protocol: Cells mounted on glass slides were fixed with methanol at −20° C. for 10 min, then permeabilized with 0.05% Triton X-100 in a PBS buffer for 8 min at 4° C., and blocked with 1% bovine serum in PBS for 30 min at room temperature, followed by incubation with primary antibodies at room temperature for 3 hr and detected by FITC-labeled anti-IgG (1:200), anti-goat IgG conjugated with Cy3 (1:200) at room temperature for 1 hr. The cells were costained with 40,6-diamidino-2-phenylindole (DAPI) (1:10,000 dilution) to visualize nuclei. The images were taken under a LEICA TCS SP8 confocal laser scanning microscope system or an LSM-510 confocal laser scanning microscope system.

[2] = target: T1, p-RXRα and PLK1 at the centrosome (Homo sapiens, UniProt P19793); assay: In situ proximity ligation assay (PLA) in HepG2 cells; format: cell-based; conditions: RO-3306 10 μM for 30 min or compound A1 10 μM for 2 hr (FIG. 56)
T1 construct: endogenous in cells; host or cells: HepG2
T1 sequence (P19793 1-462): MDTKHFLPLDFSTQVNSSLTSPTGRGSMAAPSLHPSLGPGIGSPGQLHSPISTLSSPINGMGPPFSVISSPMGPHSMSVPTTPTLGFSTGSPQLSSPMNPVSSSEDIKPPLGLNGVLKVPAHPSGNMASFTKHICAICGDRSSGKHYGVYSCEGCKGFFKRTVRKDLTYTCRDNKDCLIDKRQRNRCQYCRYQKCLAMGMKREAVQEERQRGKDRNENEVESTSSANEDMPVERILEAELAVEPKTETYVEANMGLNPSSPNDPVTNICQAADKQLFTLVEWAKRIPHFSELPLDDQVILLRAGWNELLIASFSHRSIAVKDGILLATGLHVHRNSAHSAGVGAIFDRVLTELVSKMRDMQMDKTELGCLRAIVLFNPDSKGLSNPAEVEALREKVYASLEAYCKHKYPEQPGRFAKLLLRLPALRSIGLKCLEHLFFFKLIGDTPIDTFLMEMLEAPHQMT
Protocol: An in situ proximity ligation assay (PLA) was performed in HeLa cells and HepG2 by using a DOULINK™ assay kit. Briefly, cells mounted on glass slides were fixed with methanol at −20° C. for 5 min, then permeabilized with 0.05% Triton X-100 in a PBS buffer for 8 min at 4° C., and blocked with a blocking solution for 60 min at 37° C., followed by incubation with primary antibodies for 60 min at 37° C. The slides were then washed three times with wash buffer A, and PLA labeled secondary antibodies (anti-mouse, minus; anti-rabbit, plus) were added and incubated for 60 min at 37° C. The slides were washed two times with wash buffer A and a ligation solution including a ligase was added for 30 min at 37° C. After ligation, the slides were washed two times with wash buffer A and followed by incubation with an amplification buffer including a polymerase for 100 min at 37° C. After amplification, the slides were washed two times with 1×wash buffer B and one time in 0.01×wash buffer B. Finally, the slides were mounted using a minimal volume of a mounting medium with DAPI and analyzed in a confocal microscope after 15 min.

[3] = target: T2, regular 55 kDa RXRα (unmodified form) (human, UniProt P19793 1-462); assay: co-immunoprecipitation from HeLa cells (IP: FLAG, WB: Myc)
T2 construct: Non-shifted band of RXRα; Endogenous and tagged (Myc, FLAG, GST) forms are merged; also called regular RXRα; GST-RXRα (not phosphorylated)
T2 sequence: T1 sequence (P19793 1-462)

[4] = target: T3, modified (phosphorylated) RXRα, mobility-shifted form (human, UniProt P19793 1-462, phosphoserine at 56 (as in SEQ ID NO: 1) and phosphoserine at 70 (MS/MS)); assay: CoIP of PLK1-KD or PLK1-PBD with RXRα in HeLa cells (FIG. 6)
T3 construct: Cdk1-phosphorylated form with reduced mobility on SDS-PAGE; Endogenous and Myc-, FLAG-, GST-tagged forms are merged; also called m-RXRα; p-RXRα
T3 sequence: T1 sequence (P19793 1-462)

[5] = target: T4, polo-like kinase 1 (PLK1), full-length (human, UniProt P53350 1-603); assay: CoIP of FLAG-PLK1 with Myc-RXRα mutants in HeLa cells (FIG. 27)
T4 construct: Endogenous, FLAG-tagged and His-tagged forms are merged here; also called FLAG-PLK1; Flag-PLK1

[6] = target: T4, polo-like kinase 1 (PLK1), full-length; assay: CoIP in HeLa cells (FIG. 5)
[7] = target: T5, retinoic acid receptor-γ (RARγ) (UniProt P13631 1-454, limits assumed); assay: co-immunoprecipitation from HeLa cells (IP: FLAG, WB: Myc)
T5 construct: also called FLAG-RARγ
T5 sequence (looked up): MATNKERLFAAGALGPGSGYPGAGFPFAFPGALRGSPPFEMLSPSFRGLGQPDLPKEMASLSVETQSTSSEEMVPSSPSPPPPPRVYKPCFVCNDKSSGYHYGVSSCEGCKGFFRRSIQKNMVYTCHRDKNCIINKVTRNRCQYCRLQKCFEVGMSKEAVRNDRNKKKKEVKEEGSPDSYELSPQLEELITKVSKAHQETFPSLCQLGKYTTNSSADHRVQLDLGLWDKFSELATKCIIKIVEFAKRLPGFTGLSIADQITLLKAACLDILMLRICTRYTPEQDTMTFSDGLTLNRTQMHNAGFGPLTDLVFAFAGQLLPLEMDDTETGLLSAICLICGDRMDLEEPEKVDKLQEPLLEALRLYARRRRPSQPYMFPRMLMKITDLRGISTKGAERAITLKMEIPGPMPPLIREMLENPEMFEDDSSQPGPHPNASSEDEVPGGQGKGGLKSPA

[8] = target: T4, polo-like kinase 1 (PLK1), full-length; assay: CoIP in HeLa cells (FIG. 3)
[9] = target: T5, retinoic acid receptor-γ (RARγ); assay: CoIP in HeLa cells (FIG. 3)
[10] = target: T4, polo-like kinase 1 (PLK1), full-length; assay: CoIP in HeLa cells (FIG. 4)

T4 sequence (P53350 whole entry): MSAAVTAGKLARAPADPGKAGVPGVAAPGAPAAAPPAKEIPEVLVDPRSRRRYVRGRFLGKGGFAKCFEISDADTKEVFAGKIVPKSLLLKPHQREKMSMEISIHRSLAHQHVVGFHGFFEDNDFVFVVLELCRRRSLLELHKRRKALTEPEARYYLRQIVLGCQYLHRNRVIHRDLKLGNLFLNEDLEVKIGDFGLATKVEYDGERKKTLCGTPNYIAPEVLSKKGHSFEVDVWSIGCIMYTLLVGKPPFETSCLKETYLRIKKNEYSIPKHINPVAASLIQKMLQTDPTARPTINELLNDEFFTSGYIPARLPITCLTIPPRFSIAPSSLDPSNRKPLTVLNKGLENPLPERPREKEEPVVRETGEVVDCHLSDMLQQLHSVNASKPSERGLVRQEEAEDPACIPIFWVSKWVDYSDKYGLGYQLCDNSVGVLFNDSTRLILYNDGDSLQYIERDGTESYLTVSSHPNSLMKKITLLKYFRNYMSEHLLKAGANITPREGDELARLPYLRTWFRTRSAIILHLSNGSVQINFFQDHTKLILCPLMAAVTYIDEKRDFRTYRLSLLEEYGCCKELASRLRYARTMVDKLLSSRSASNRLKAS

CC[C@@H]1C(=O)N(C)c2cnc(Nc3ccc(C(=O)NC4CCN(C)CC4)cc3OC)nc2N1C1CCCC1 [BI2536]
RXRα shift (mobility shift on SDS-PAGE, WB) (RXRα shift): did not inhibit
effect in p-RXRα-negative noncancerous QSG-7701 cells (QSG-7701 cells): active even in QSG-7701 cells
inducing mitosis arrest (cancer cells): inducing mitosis arrest
mitotic progression of cancer cells (cancer cells): inhibited mitotic progression of cancer cells

O=C1NC(=NCc2cccs2)S/C1=C\c1ccc2ncccc2c1 [RO-3306]
PLK1 activation / PLK1 phosphorylation (PLK1 phosphorylation): reduced PLK1 phosphorylation in a dose dependent manner
level of p-RXRα detected by the anti-pS56-RXRα antibody (RXRα shift; mitotic HeLa cells): reduced
RXRα shift (mobility shift on SDS-PAGE, WB) (RXRα shift): strongly inhibited RXRα shift in a dose dependent manner
centrosomal RXRα staining by the regular anti-RXRα antibody [1]: inhibited centrosomal RXRα staining
centrosomal staining by the anti-pS56-RXRα antibody [1]: eliminated centrosomal staining by the antibody
in situ interaction between p-RXRα and PLK1 at the centrosome (PLA) [2]: inhibited the in situ interaction

Oc1c2ccccc2c2c3c(cccc13)N=N2 [SP600125]
RXRα shift (mobility shift on SDS-PAGE, WB) (RXRα shift): no effect

Cc1cc(Nc2cc(N3CCN(C)CC3)nc(Sc3ccc(NC(=O)C4CC4)cc3)n2)n[nH]1 [VX680]
PLK1 activation / PLK1 phosphorylation (PLK1 phosphorylation): attenuated

CN1CC[C@H](c2c(O)cc(O)c3c(=O)cc(-c4ccccc4Cl)oc23)[C@H](O)C1 [flavopiridol]
RXRα shift (mobility shift on SDS-PAGE, WB) (RXRα shift): strongly inhibited RXRα shift in a dose dependent manner

CC(=O)c1c(C)c2cnc(Nc3ccc(N4CCNCC4)cn3)nc2n(C2CCCC2)c1=O [palbociclib]
RXRα shift (mobility shift on SDS-PAGE, WB) (RXRα shift): no effect

CC1=CC(=O)C(C(C)C)=C/C1=N/OC(=O)c1ccccc1C [poloxin]
mitotic progression of cancer cells (cancer cells): inhibited mitotic progression of cancer cells

B1: PLK1-KD (N-terminal kinase domain of PLK1) (enzyme, UniProt P53350 1-326, looked up)
chain: MSAAVTAGKLARAPADPGKAGVPGVAAPGAPAAAPPAKEIPEVLVDPRSRRRYVRGRFLGKGGFAKCFEISDADTKEVFAGKIVPKSLLLKPHQREKMSMEISIHRSLAHQHVVGFHGFFEDNDFVFVVLELCRRRSLLELHKRRKALTEPEARYYLRQIVLGCQYLHRNRVIHRDLKLGNLFLNEDLEVKIGDFGLATKVEYDGERKKTLCGTPNYIAPEVLSKKGHSFEVDVWSIGCIMYTLLVGKPPFETSCLKETYLRIKKNEYSIPKHINPVAASLIQKMLQTDPTARPTINELLNDEFFTSGYIPARLPITCLTIPPRFS
notes: domain: kinase domain (KD)
binding result [3]: no binding
binding result [4]: no binding

B2: RXRα-S56A/S70A (RXRα-2A) (receptor)
chain: T1 sequence (P19793 1-462) with S56A, S70A
notes: Myc-tagged (CoIP) and GST-fused (kinase assay) forms are merged; also called RXR-S56A/S70A(2A); GST-RXRα-2A
binding result [5]: no binding

B3: RXRα mutant lacking the N-terminal A/B domain (receptor)
chain: CAICGDRSSGKHYGVYSCEGCKGFFKRTVRKDLTYTCRDNKDCLIDKRQRNRCQYCRYQKCLAMGMKREAVQEERQRGKDRNENEVESTSSANEDMPVERILEAELAVEPKTETYVEANMGLNPSSPNDPVTNICQAADKQLFTLVEWAKRIPHFSELPLDDQVILLRAGWNELLIASFSHRSIAVKDGILLATGLHVHRNSAHSAGVGAIFDRVLTELVSKMRDMQMDKTELGCLRAIVLFNPDSKGLSNPAEVEALREKVYASLEAYCKHKYPEQPGRFAKLLLRLPALRSIGLKCLEHLFFFKLIGDTPIDTFLMEMLEAPHQMT
notes: also called RXRα-AA/B (so in the source)
binding result [6]: no binding

B4: RXRα-1-235, regular form (receptor)
chain: MDTKHFLPLDFSTQVNSSLTSPTGRGSMAAPSLHPSLGPGIGSPGQLHSPISTLSSPINGMGPPFSVISSPMGPHSMSVPTTPTLGFSTGSPQLSSPMNPVSSSEDIKPPLGLNGVLKVPAHPSGNMASFTKHICAICGDRSSGKHYGVYSCEGCKGFFKRTVRKDLTYTCRDNKDCLIDKRQRNRCQYCRYQKCLAMGMKREAVQEERQRGKDRNENEVESTSSANEDMPVERI
binding result [7]: no binding

B5: RXRα-1-235, modified form with mobility shift (receptor)
chain: B4 chain
modifications: phosphorylated (mobility-shifted); sites not stated for this construct
notes: A/B domain plus DBD
binding result [8]: binds
binding result [9]: no binding

B6: RXRα-LBD (ligand-binding domain of RXRα) (receptor)
chain: TSSANEDMPVERILEAELAVEPKTETYVEANMGLNPSSPNDPVTNICQAADKQLFTLVEWAKRIPHFSELPLDDQVILLRAGWNELLIASFSHRSIAVKDGILLATGLHVHRNSAHSAGVGAIFDRVLTELVSKMRDMQMDKTELGCLRAIVLFNPDSKGLSNPAEVEALREKVYASLEAYCKHKYPEQPGRFAKLLLRLPALRSIGLKCLEHLFFFKLIGDTPIDTFLMEMLEAPHQMT
notes: also called LBD of RXRα
binding result [10]: no binding
